Measurements reported in ChEMBL document CHEMBL1201862, “PubChem BioAssay data set” (2004).
Several values for one entry are separate records, joined by “and”; a condition that tells them apart may be missing. Equal values may be shown once.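 Step 1: Grow cells in 96-well plates. Step 2: Expose to compound for 48 hours at 5 concentrations. Step 3: Interpolate endpoints linearly; if unreached, use highest concentration. The concentration for 50% growth inhibition is given as GI50.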 Activity calls are given as the source filed them. Rule as the data show it: active = GI50 up to about 1.1 µM and inactive = higher.

Legend:
Test in all cases: DTP human tumour cell line panel, 48 h
COLO 205 = test system: COLO 205
Malme-3M = test system: Malme-3M
SK-MEL-28 = test system: SK-MEL-28
A549 = test system: A549
M14 = test system: M14
DU-145 = test system: DU-145
SN12C = test system: SN12C
HCT-15 = test system: HCT-15
OVCAR-4 = test system: OVCAR-4
UO-31 = test system: UO-31
UACC-257 = test system: UACC-257
ACHN = test system: ACHN
TK-10 = test system: TK-10
NCI-H23 = test system: NCI-H23
SK-MEL-5 = test system: SK-MEL-5
IGROV-1 = test system: IGROV-1
EKVX = test system: EKVX
BT-549 = test system: BT-549
NCI/ADR-RES = test system: NCI/ADR-RES
NCI-H522 = test system: NCI-H522
NCI-H460 = test system: NCI-H460
MDA-N = test system: MDA-N
NCI-H226 = test system: NCI-H226
OVCAR-8 = test system: OVCAR-8
MDA-MB-231 = test system: MDA-MB-231
OVCAR-5 = test system: OVCAR-5
MDA-MB-435 = test system: MDA-MB-435
A498 = test system: A498
K562 = test system: K562
MOLT-4 = test system: MOLT-4
T47D = test system: T47D
SW-620 = test system: SW-620
SF-295 = test system: SF-295
SF-539 = test system: SF-539
HCC 2998 = test system: HCC 2998
SK-MEL-2 = test system: SK-MEL-2
LOX IMVI = test system: LOX IMVI
HL-60 = test system: HL-60
U-251 = test system: U-251
HOP-62 = test system: HOP-62
HCT-116 = test system: HCT-116
HT-29 = test system: HT-29
Hs-578T = test system: Hs-578T
SR = test system: SR
RPMI-8226 = test system: RPMI-8226
SNB-75 = test system: SNB-75
PC-3 = test system: PC-3
CCRF-CEM = test system: CCRF-CEM
SF-268 = test system: SF-268
MCF7 = test system: MCF7
SK-OV-3 = test system: SK-OV-3
RXF 393 = test system: RXF 393
CAKI-1 = test system: CAKI-1
KM12 = test system: KM12
OVCAR-3 = test system: OVCAR-3
SNB-19 = test system: SNB-19
UACC-62 = test system: UACC-62

CC(=O)OCC1OC(n2c3c(cc(C#N)c2=S)CCCC3)C(OC(C)=O)C(OC(C)=O)C1OC(C)=O (stereo not drawn) was tested, and the GI50 (COLO 205) was > 100 µM (inactive), the GI50 (Malme-3M) was > 100 µM (inactive) and the GI50 (SK-MEL-28) was > 100 µM (inactive). For the same compound, the GI50 (A549) was > 91.4 µM (inactive), the GI50 (M14) was > 100 µM (inactive) and the GI50 (DU-145) was > 100 µM (inactive). For the same compound, the GI50 (SN12C) was > 100 µM (inactive), the GI50 (HCT-15) was over 100 µM and the GI50 (OVCAR-4) was > 100 µM (inactive). For the same compound, the GI50 (UO-31) was > 100 µM (inactive), the GI50 (UACC-257) was > 100 µM (inactive) and the GI50 (ACHN) was > 64.4 µM (inactive). For the same compound, the GI50 (TK-10) was > 100 µM (inactive), the GI50 (NCI-H23) was > 100 µM (inactive) and 62.5 µM (inactive) and the GI50 (SK-MEL-5) was > 76.4 µM (inactive). For the same compound, the GI50 (IGROV-1) was 57.8 µM (inactive), the GI50 (EKVX) was 70 µM (inactive) and the GI50 (BT-549) was > 100 µM (inactive). For the same compound, the GI50 (NCI/ADR-RES) was > 74.1 µM (inactive), the GI50 (NCI-H522) was 42.8 µM (inactive) and 40.8 µM (inactive) and the GI50 (NCI-H460) was > 100 µM (inactive) and 50.9 µM (inactive). For the same compound, the GI50 (MDA-N) was > 100 µM (inactive), the GI50 (NCI-H226) was > 100 µM (inactive) and > 80 µM (inactive) and the GI50 (OVCAR-8) was > 60.5 µM (inactive). The GI50 (MDA-MB-231) was > 100 µM (inactive), the GI50 (OVCAR-5) was > 100 µM (inactive) and the GI50 (MDA-MB-435) was > 100 µM (inactive). The GI50 (A498) was > 100 µM (inactive).
In the case of CCOC(=O)N1CCN(C(=O)Nc2cccc3ccccc23)CC1, the GI50 (COLO 205) is reported as > 10 µM (inactive), the GI50 (Malme-3M) is reported as > 10 µM (inactive) and the GI50 (SK-MEL-28) is reported as > 10 µM (inactive). For the same compound, the GI50 (A549) was > 10 µM (inactive), the GI50 (K562) was > 10 µM (inactive) and the GI50 (M14) was > 10 µM (inactive). For the same compound, the GI50 (DU-145) was > 10 µM (inactive), the GI50 (SN12C) was > 10 µM (inactive) and the GI50 (MOLT-4) was > 10 µM (inactive). The GI50 (T47D) was > 10 µM (inactive), the GI50 (SW-620) was > 10 µM (inactive) and the GI50 (SF-295) was > 10 µM (inactive). The GI50 (SF-539) was > 10 µM (inactive), the GI50 (HCT-15) was over 10 µM and the GI50 (OVCAR-4) was > 10 µM (inactive). The GI50 (HCC 2998) was > 10 µM (inactive), the GI50 (SK-MEL-2) was > 10 µM (inactive) and the GI50 (UO-31) was > 10 µM (inactive). The GI50 (LOX IMVI) was > 10 µM (inactive), the GI50 (HL-60) was > 10 µM (inactive) and the GI50 (U-251) was > 10 µM (inactive). The GI50 (HOP-62) was > 10 µM (inactive), the GI50 (HCT-116) was > 10 µM (inactive) and the GI50 (HT-29) was > 10 µM (inactive). The GI50 (ACHN) was > 10 µM (inactive), the GI50 (Hs-578T) was > 10 µM (inactive) and the GI50 (SR) was > 10 µM (inactive). The GI50 (TK-10) was > 10 µM (inactive), the GI50 (NCI-H23) was > 10 µM (inactive) and the GI50 (SK-MEL-5) was > 10 µM (inactive). For the same compound, the GI50 (RPMI-8226) was > 10 µM (inactive), the GI50 (SNB-75) was > 10 µM (inactive) and the GI50 (PC-3) was > 10 µM (inactive). The GI50 (CCRF-CEM) was > 10 µM (inactive), the GI50 (IGROV-1) was > 10 µM (inactive) and the GI50 (EKVX) was > 10 µM (inactive). For the same compound, the GI50 (SF-268) was > 10 µM (inactive), the GI50 (NCI/ADR-RES) was > 10 µM (inactive) and the GI50 (NCI-H522) was > 10 µM (inactive). The GI50 (MCF7) was > 10 µM (inactive), the GI50 (NCI-H460) was > 10 µM (inactive) and the GI50 (MDA-N) was > 10 µM (inactive). For the same compound, the GI50 (NCI-H226) was > 10 µM (inactive), the GI50 (OVCAR-8) was > 10 µM (inactive) and the GI50 (MDA-MB-231) was > 10 µM (inactive). The GI50 (OVCAR-5) was > 10 µM (inactive), the GI50 (MDA-MB-435) was > 10 µM (inactive) and the GI50 (SK-OV-3) was > 10 µM (inactive). For the same compound, the GI50 (RXF 393) was > 10 µM (inactive), the GI50 (CAKI-1) was > 10 µM (inactive) and the GI50 (KM12) was > 10 µM (inactive). For the same compound, the GI50 (A498) was > 10 µM (inactive), the GI50 (OVCAR-3) was > 10 µM (inactive) and the GI50 (SNB-19) was > 10 µM (inactive). The GI50 (UACC-62) was > 10 µM (inactive).
